One data set deals with cdc2/cyclinB (Homo sapiens, UniProt P06493). Briefly: Cyclin-Dependent Kinase Assay cdc2/cyclinB.
The next data set concerns the target Cdk5/p25 (Homo sapiens, UniProt Q00535). Briefly: Cyclin-Dependent Kinase 5 (cdk5) Assay. The format is biochemical. As to conditions: Table 1. The procedure, abridged: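 Radiometric filter-plate assay: components premixed 5 min, reaction started with histone substrate and [^32P]ATP, 45 min at 30° C.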
In another data set the target is cdk4/D (Homo sapiens, UniProt P11802). Briefly: Cyclin-Dependent Kinase 4 (cdk4) Assay. Type of data set: biochemical. As to conditions: Table 1; read-out: cdk4/D IC50.
Chain of cdk4/D (P11802 whole entry): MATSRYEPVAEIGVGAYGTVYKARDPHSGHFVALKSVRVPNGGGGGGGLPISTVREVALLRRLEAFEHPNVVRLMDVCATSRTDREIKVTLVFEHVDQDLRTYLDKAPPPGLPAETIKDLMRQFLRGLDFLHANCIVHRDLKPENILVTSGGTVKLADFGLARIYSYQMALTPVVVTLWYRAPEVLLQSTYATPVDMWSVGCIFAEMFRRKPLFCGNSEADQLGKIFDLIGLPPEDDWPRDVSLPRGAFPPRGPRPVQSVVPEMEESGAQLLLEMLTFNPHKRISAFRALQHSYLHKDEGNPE
Chain of cdk4/D (P24385 whole entry, further chain): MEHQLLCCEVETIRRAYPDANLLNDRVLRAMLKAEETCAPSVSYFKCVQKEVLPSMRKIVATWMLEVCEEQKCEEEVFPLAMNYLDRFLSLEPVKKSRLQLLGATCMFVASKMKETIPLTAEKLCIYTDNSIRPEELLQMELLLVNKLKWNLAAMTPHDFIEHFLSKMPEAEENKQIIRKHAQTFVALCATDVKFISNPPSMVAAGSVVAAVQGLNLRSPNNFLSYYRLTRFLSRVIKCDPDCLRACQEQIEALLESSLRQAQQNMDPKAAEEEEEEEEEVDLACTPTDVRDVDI
A further data set addresses cdk2/cyclinE (Homo sapiens, UniProt P24941). Kind of data set: Cyclin-Dependent Kinase Assay cdk2/cyclinE. As to conditions: cdk2/E IC50, Table 1.
The next data set has as its target cdk2/cyclinA (Homo sapiens, UniProt P24941). Kind of data set: Cyclin-Dependent Kinase Assay cdk2/cyclinA. As to conditions: cdk2/A IC50, Table 1.

SMILES strings stand for the structures.

Chain of cdc2/cyclinB (P06493 whole entry): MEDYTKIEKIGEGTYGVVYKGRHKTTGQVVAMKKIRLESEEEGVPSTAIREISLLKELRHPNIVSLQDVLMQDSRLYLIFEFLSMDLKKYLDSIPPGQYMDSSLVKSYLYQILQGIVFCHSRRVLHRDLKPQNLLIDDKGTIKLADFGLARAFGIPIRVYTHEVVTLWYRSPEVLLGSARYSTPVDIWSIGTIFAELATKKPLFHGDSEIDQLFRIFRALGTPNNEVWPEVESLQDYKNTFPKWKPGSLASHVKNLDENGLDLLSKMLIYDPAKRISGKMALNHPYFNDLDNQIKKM
Chain of cdc2/cyclinB (P14635 whole entry, further chain): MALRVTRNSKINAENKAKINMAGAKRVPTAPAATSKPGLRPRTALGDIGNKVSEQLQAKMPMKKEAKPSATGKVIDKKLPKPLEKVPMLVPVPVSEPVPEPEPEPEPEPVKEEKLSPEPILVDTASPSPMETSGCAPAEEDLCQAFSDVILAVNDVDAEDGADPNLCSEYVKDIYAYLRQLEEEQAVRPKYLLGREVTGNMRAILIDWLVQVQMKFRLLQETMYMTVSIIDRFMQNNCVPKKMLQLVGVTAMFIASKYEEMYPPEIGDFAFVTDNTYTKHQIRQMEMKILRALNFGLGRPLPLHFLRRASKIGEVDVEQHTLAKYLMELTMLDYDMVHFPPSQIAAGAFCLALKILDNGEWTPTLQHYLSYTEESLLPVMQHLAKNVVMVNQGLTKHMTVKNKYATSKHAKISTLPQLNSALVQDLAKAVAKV

In turn, `CCN(CC)CCOc1ccc(Nc2ncc3ccc(=O)n(C4CCCCC4)c3n2)cc1` [Example 132, 8-Cyclohexyl-2-[4-(2-diethylamino-ethoxy)-phenylamino]-8H-pyrido[2,3-d]pyrimidin-7-one] came in with a melting point of 135 to 137 °C. The molecule also yielded an IC50 at cdc2/cyclinB of 373 nM. Also, the IC50 against Cdk5/p25 was found to be 25.9 nM. For the same molecule, the IC50 on cdk4/D stood at 10.5 nM. Besides, the IC50 on cdk2/cyclinE is 91 nM. The same molecule yielded an IC50 against cdk2/cyclinA of 60.5 nM.
`CN1CCN(c2ccc(Nc3ncc4ccc(=O)n(C5CCCCC5)c4n3)cc2)CC1` [Example 133, 8-Cyclohexyl-2-[4-(4-methyl-piperazin-1-yl)-phenylamino]-8H-pyrido[2,3-d]pyrimidin-7-one] yielded a melting point of 205 to 207 °C. At cdc2/cyclinB, this molecule yielded an IC50 of 78.5 nM. In addition, the IC50 at Cdk5/p25 is 6.9 nM. For the same molecule, the IC50 on cdk4/D is 4.5 nM. The molecule further displayed an IC50 against cdk2/cyclinE of 19.7 nM. The IC50 against cdk2/cyclinA stood at 15 nM.
The molecule `CN(C)c1ccc(Nc2ncc3ccc(=O)n(CCCOCc4ccccc4)c3n2)cc1` [Example 138, 8-(3-Benzyloxy-propyl)-2-(4-dimethylamino-phenylamino)-8H-pyrido[2,3-d]pyrimidin-7-one] gave a melting point of 144 to 146 °C. The IC50 against cdc2/cyclinB is 3300 nM. On Cdk5/p25, the IC50 turned out to be 280 nM. Further, the IC50 at cdk4/D came to 513 nM. In addition, the IC50 at cdk2/cyclinE was 2630 nM. Also, the IC50 against cdk2/cyclinA was 217 nM.
`CC1CN(c2ccc(Nc3ncc4ccc(=O)n(C5CCCCC5)c4n3)cc2)CC(C)N1` (stereo not drawn) [Example 145, 8-Cyclohexyl-2-14-(3,5-dimethyl-piperazin-1-yl)-phenylamino-8H-pyrido[2,3-d]pyrimidin-7-one]: the melting point was 237 to 239 °C. In addition, the IC50 against cdc2/cyclinB came out at 146 nM. The molecule further came in with an IC50 against Cdk5/p25 of 17.3 nM. Further, on cdk4/D, the IC50 stood at 4.5 nM. Further, on cdk2/cyclinE, the IC50 is 45.5 nM. Further, on cdk2/cyclinA, the IC50 was 32.5 nM.
The molecule `CC1CCN(c2ccc(Nc3ncc4ccc(=O)n(C5CCCCC5)c4n3)cc2)CC1` [Example 159, 8-Cyclohexyl-2-[4-(4-methyl-piperidin-1-yl)-phenylamino]-8H-pyrido[2,3-d]pyrimidin-7-one] showed a melting point of 208 to 209 °C. The IC50 against cdc2/cyclinB amounted to 78.5 nM. On Cdk5/p25, this molecule displayed an IC50 of 6.9 nM. Also, the IC50 on cdk4/D came to 4.5 nM. For the same molecule, the IC50 against cdk2/cyclinE turned out to be 19.7 nM. Moreover, the IC50 against cdk2/cyclinA worked out at 15 nM.
In turn, `O=c1ccc2cnc(Nc3ccc(-n4cccc4)cc3)nc2n1C1CCCCC1` [Example 161, 8-Cyclohexyl-2-(4-pyrrole-1-yl-phenylamino)-811-pyrido[2,3-d]pyrimidin-7-one] returned a melting point of 183 to 184 °C. Besides, on cdc2/cyclinB, the IC50 was 450 nM. The IC50 on Cdk5/p25 came to 43.1 nM. In addition, the IC50 at cdk4/D amounted to 275 nM. For the same molecule, the IC50 at cdk2/cyclinE worked out at 554 nM. The same molecule returned an IC50 on cdk2/cyclinA of 104 nM.
Molecule `O=c1ccc2cnc(Nc3ccc(-n4cccn4)cc3)nc2n1C1CCCCC1` [Example 162, 8-Cyclohexyl-2-(4-pyrazol-1-yl-phenylamino)-8H-pyrido[2,3-d]pyrimidin-7-one] yielded a melting point of 241 to 242 °C. The molecule further returned an IC50 on cdc2/cyclinB of 267 nM. Moreover, the IC50 against Cdk5/p25 worked out at 42.5 nM. The IC50 on cdk4/D was 89 nM. The molecule further gave an IC50 against cdk2/cyclinE of 87 nM. On cdk2/cyclinA, this molecule came in with an IC50 of 35.7 nM.
Turning to `O=c1ccc2cnc(Nc3ccc(F)cc3)nc2n1C1CC2CCC1C2` (stereo not drawn) [Example 212, 8-Bicyclo[2.2.1]hept-2-yl-2-(4-fluoro-phenylamino)-8H-pyrido[2,3-d]pyrimidin-7-one], the melting point was in the range of 219 to 220 °C. Also, the IC50 at cdc2/cyclinB stood at 189 nM. The molecule also displayed an IC50 at Cdk5/p25 of 10.1 nM. Besides, on cdk4/D, the IC50 is 29.7 nM. The IC50 against cdk2/cyclinE was found to be 14 nM. On cdk2/cyclinA, this molecule came in with an IC50 of 16 nM.
For the molecule `O=c1ccc2cnc(Nc3ccc(N4CCC(O)CC4)cc3)nc2n1C1CCCCC1` [Example 215, 8-Cyclohexyl-2-[4-(4-hydroxy-piperidin-1-yl)-phenylamino]-8H-pyrido[2,3-d]pyrimidin-7-one], the melting point was 224 to 225 °C. Besides, the IC50 against cdc2/cyclinB was 112 nM. In addition, the IC50 against Cdk5/p25 was determined as 24.4 nM. Further, the IC50 on cdk4/D is 7.5 nM. Besides, the IC50 against cdk2/cyclinE was 24 nM. For the same molecule, on cdk2/cyclinA, the IC50 worked out at 8.4 nM.
In turn, `O=c1ccc2cnc(Nc3ccc(OC(F)(F)C(F)F)cc3)nc2n1C1CC2CCC1C2` (stereo not drawn) [Example 219, 8-Bicyclo[2.2.1]hept-2-yl-2-[4-(1,1,2,2-tetrafluoro-ethoxy)-phenylamino]-8H-pyrido[2,3-d]pyrimidin-7-one] returned a melting point of 214 to 215 °C. Further, at cdc2/cyclinB, the IC50 was 7070 nM. Further, at Cdk5/p25, the IC50 stood at 568 nM. Moreover, the IC50 at cdk4/D stood at 780 nM. In addition, the IC50 at cdk2/cyclinE came to 31900 nM. At cdk2/cyclinA, this molecule showed an IC50 of 6610 nM.
Molecule `O=c1ccc2cnc(Nc3ccc(F)c(F)c3)nc2n1C1CC2CCC1C2` (stereo not drawn) [Example 220, 8-Bicyclo[2.2.1]hept-2-yl-2-(3,4-difluoro-phenylamino)-8H-pyrido[2,3-d]pyrimidin-7-one] yielded a melting point of 227 to 228 °C. This molecule also yielded an IC50 at cdc2/cyclinB of 1660 nM. The IC50 on Cdk5/p25 was 66.2 nM. Further, at cdk4/D, the IC50 worked out at 115 nM. On cdk2/cyclinE, this molecule returned an IC50 of 50 nM. Besides, at cdk2/cyclinA, the IC50 was found to be 57.8 nM.
Consider `O=c1ccc2cnc(Nc3ccc(N4CCC(O)CC4)cc3)nc2n1C1CC2CCC1C2` (stereo not drawn) [Example 227, 8-Bicyclo[2.2.1]hept-2-yl-2-[4-(4-hydroxy-piperidin-1-yl)-phenylamino]-8H-pyrido[2,3-d]pyrimidin-7-one], for which the melting point was found to be 206 °C. In addition, on cdc2/cyclinB, the IC50 amounted to 82.5 nM. The same molecule yielded an IC50 on Cdk5/p25 of 36 nM. The IC50 at cdk4/D came to 2.8 nM. Besides, the IC50 against cdk2/cyclinE worked out at 56 nM. Further, the IC50 at cdk2/cyclinA came to 20.7 nM.
Molecule `O=c1ccc2cnc(Nc3ccc(N4CCC(CCO)CC4)cc3)nc2n1C1CC2CCC1C2` (stereo not drawn) [Example 228, 8-Bicyclo[2.2.1]hept-2-yl-2-{4-[4-(2-hydroxy-ethyl)-piperidin-1-yl]-phenylamino}-8H-pyrido[2,3-d]pyrimidin-7-one] returned a melting point of 202 °C. This molecule gave an IC50 against cdc2/cyclinB of 380 nM. Moreover, the IC50 against Cdk5/p25 came out at 38.8 nM. Moreover, the IC50 at cdk4/D turned out to be 5.5 nM. Also, at cdk2/cyclinE, the IC50 came to 185 nM. Also, the IC50 on cdk2/cyclinA is 98.5 nM.
`O=c1ccc2cnc(Nc3ccc(N4CCCC(CO)C4)cc3)nc2n1C1CC2CCC1C2` (stereo not drawn) [Example 231, 8-Bicyclo[2.2.1]hept-2-yl-2-[4-(3-hydroxymethyl-piperidin-1-yl)-phenylamino]-8H-pyrido[2,3-d]pyrimidin-7-one] displayed a melting point of 152 °C. The molecule also registered an IC50 against cdc2/cyclinB of 220 nM. On Cdk5/p25, this molecule displayed an IC50 of 167 nM. Besides, on cdk4/D, the IC50 was determined as 2.1 nM. The molecule further showed an IC50 against cdk2/cyclinE of 85 nM. In addition, the IC50 on cdk2/cyclinA is 63 nM.
`CN1CCN(c2ccc(Nc3ncc4ccc(=O)n(C5CC6CCC5C6)c4n3)cc2)CC1` (stereo not drawn) [Example 252] displayed a melting point of 233 to 234 °C. Besides, the IC50 against cdc2/cyclinB was 160 nM. Moreover, the IC50 against Cdk5/p25 came to 23.7 nM. Besides, on cdk4/D, the IC50 amounted to 6.1 nM. This molecule also registered an IC50 against cdk2/cyclinE of 102 nM. Also, the IC50 on cdk2/cyclinA was 42.5 nM.
In the case of `O=c1ccc2cnc(Nc3ccc(N4CCCCC4CO)cc3)nc2n1C1CC2CCC1C2` (stereo not drawn) [Example 253], the melting point was 160 to 161 °C. This molecule also had an IC50 on cdc2/cyclinB of 670 nM. At Cdk5/p25, the IC50 was 300 nM. Also, the IC50 on cdk4/D was found to be 11.5 nM. The same molecule had an IC50 at cdk2/cyclinE of 149 nM. The IC50 against cdk2/cyclinA came out at 110 nM.

One may read the melting point as the temperature of the solid-liquid transition.

The values are drawn from patent US20040224958A1, “Pyridopyrimidinone derivatives for treatment of neurodegenerative disease” (priority 2000, published 2004).
